No end group written: not given here.
Assays:
MYC [1] = test: Western blot of MYC in COLO-320DM; format: cell-based, human; conditions: COLO320DM
Procedure: For whole-cell lysate, the cell pellet was resuspended in RIPA buffer (Cell Signaling Technologies, Danvers, MA) supplemented with a protease inhibitor cocktail (Cell Signaling Technologies) and incubated on ice for 20 minutes. The lysate was then centrifuged at 14,000 revolutions/minute for 10 minutes at 4°C, and the supernatant was harvested. Protein concentration was quantified by BCA Protein Assay Kit (Thermo Fisher Scientific) as per kit protocol. Next, 20 μg of whole-cell lysate was electrophoresed on a 4%–20% gradient polyacrylamide gel with SDS (Bio-Rad, Hercules, CA) and electroblotted onto polyvinylidene difluoride membranes (Bio-Rad). Membranes were blocked in Tris-buffered saline with 5% nonfat milk and 0.1% Tween and probed with antibodies. Bound proteins were detected with horseradish-peroxidase–conjugated secondary antibodies (Cell Signaling Technologies) and SuperSignal West Femto (Thermo Fisher Scientific). […]
The HNB ORF and eGFP (control) were cloned in an inducible lentivirus expression, TRE-gateway plasmid (pLIX_403, Addgene, #41395). […] The protein lysates were collected and quantified using the previously described protocol. […] Bound proteins were detected with horseradish-peroxidase–conjugated secondary antibodies (Cell Signaling Technologies) and SuperSignal West Femto (Thermo Fisher Scientific). […]

COLO-320DM cells = test: Proliferation assay COLO-320DM; format: cell-based, human; conditions: COLO320DM
MYC [2] = test: Western blot of MYC in D458; format: cell-based, human
Procedure: For whole-cell lysate, the cell pellet was resuspended in RIPA buffer (Cell Signaling Technologies, Danvers, MA) supplemented with a protease inhibitor cocktail (Cell Signaling Technologies) and incubated on ice for 20 minutes. The lysate was then centrifuged at 14,000 revolutions/minute for 10 minutes at 4°C, and the supernatant was harvested. Protein concentration was quantified by BCA Protein Assay Kit (Thermo Fisher Scientific) as per kit protocol. Next, 20 μg of whole-cell lysate was electrophoresed on a 4%–20% gradient polyacrylamide gel with SDS (Bio-Rad, Hercules, CA) and electroblotted onto polyvinylidene difluoride membranes (Bio-Rad). Membranes were blocked in Tris-buffered saline with 5% nonfat milk and 0.1% Tween and probed with antibodies. Bound proteins were detected with horseradish-peroxidase–conjugated secondary antibodies (Cell Signaling Technologies) and SuperSignal West Femto (Thermo Fisher Scientific). Antibodies used were anti-c-MYC (Cell Signaling Technology, 5605, anti-Phospho-c-MYC (Ser62) (Cell Signaling Technology, 13748), anti-β ACTIN (Cell Signaling Technology, 8457), anti-Phospho-p44/42 (Erk1/2) (Thr202/Tyr204) (Cell Signaling Technology, 4370), anti-p44/42 (Erk1/2) (Cell Signaling Technology, 4695), anti-Phospho-MEK1/2 (Ser217/221) (Cell Signaling Technology, 9154), anti-MEK1/2 (Cell Signaling Technology, 9122), anti-Phospho-p90RSK (Ser380) (Cell Signaling Technology, 11989), anti-RSK1/RSK2/RSK3 (Cell Signaling Technology, 9355), Anti-Rabbit IgG, HRP-linked Antibody (Cell Signaling Technology, 7074). Anti-FFX (Firefox) monoclonal antibodies were custom produced by Proteintech using FFX residues 13–104 as epitope.
The HNB ORF and eGFP (control) were cloned in an inducible lentivirus expression, TRE-gateway plasmid (pLIX_403, Addgene, #41395). Lentivirus was produced in HEK293T cells using the protocol described above. D458, NCI-H1792 and COLO 320DM cells were transfected with inducible HNB lentivirus and selected with 1 μg/mL concentration of Puromycin. Selected cells were seeded at a concentration of 4 × 10^5 cells per well. After 24 hours of seeding, the cells were treated with 1 μg/mL Doxycycline for 48 hours. The cells were then lysed using RIPA buffer and 1X protease inhibitor cocktail. The protein lysates were collected and quantified using the previously described protocol. 20 μg of whole-cell lysate was electrophoresed on a 4%–20% gradient polyacrylamide gel with SDS (Bio-Rad, Hercules, CA) and electroblotted onto polyvinylidene difluoride membranes (Bio-Rad). […] Bound proteins were detected with horseradish-peroxidase–conjugated secondary antibodies (Cell Signaling Technologies) and SuperSignal West Femto (Thermo Fisher Scientific). […]

D458 cells = test: Proliferation assay D458; format: cell-based, human
KRAS dimerization = test: Acceptor photobleaching FRET of CFP-KRAS/YFP-KRAS in D458; format: cell-based; conditions: shRNA1.PVT1ts D458 with doxycycline-induced HNB; n=10, one-way ANOVA
Procedure: pcDNA3.1 CFP-KRAS (#112717) and pcDNA3.1 YFP-KRAS (#112718) were purchased from Addgene. The plasmids were co-transfected into D458 cells in a 35 mm cell culture dish with glass bottom. The cells were imaged live 48 hours after transfection on the Nikon Super Resolution Confocal Microscope. CFP was excited using 405–445nm laser and YFP was excited using the 514 nm laser. YFP was photobleached at 80% power for 1 minute and the CFP and YFP were imaged after photobleaching using the respective laser and filters. The images were analyzed in Fiji, ImageJ. […]
bioRxiv preprint doi: https://doi.org/10.1101/2025.02.17.638454; this version posted February 22, 2025. The copyright holder for this preprint (which was not certified by peer review) is the author/funder, who has granted bioRxiv a license to display the preprint in perpetuity. It is made available under a CC-BY 4.0 International license .
Supplementary Figure 22: HNB regulates KRAS dimerization (A) Schematic representation of KRAS dimerization using acceptor photobleaching FRET assay. (B) Schematic representation of KRAS dimerization on knocking down HNB using shRNA1-PVT1ts. (C) Representative images showing signals for CFP-KRAS and YFP-KRAS. […]
Images were taken at 60X oil; the scale bar is 10µm. […] (p-value calculated by one-way ANOVA, n=10). […] (p-value calculated by one-way ANOVA, n=10). […]

| Substance | MYC protein level (MYC [1]; induction of HNB (-/+ Dox)) | cellular proliferation (COLO-320DM cells; induction of HNB (-/+ Dox), P=0.0002) | MYC protein level (MYC [2]; D458, induction of HNB (-/+ Dox)) | cellular proliferation (D458 cells; D458, induction of HNB or HNB mutant (+/- Dox)) | CFP (donor) fluorescence after photobleaching of YFP (KRAS dimerization) | MYC protein (MYC [1]; si.CircPVT1 vs si.Ctrl, n=3, unpaired t test, <0.0001) | cellular proliferation (COLO-320DM cells; si.CircPVT1 vs si.Ctrl, n=3, two-way ANOVA, P<0.0001) | MYC protein (MYC [2]; D458, si.CircPVT1 vs si.Ctrl, n=3, unpaired t test) | cellular proliferation (D458 cells; D458, transfection with si.CircPVT1 vs si.Ctrl, n=3, two-way ANOVA) |
| --- | --- | --- | --- | --- | --- | --- | --- | --- | --- |
| MKTQLGAVKGFLHV [HNB] | significantly reduced MYC expression at the mRNA as well as the protein levels | significantly reduced cellular proliferation | significantly reduced MYC expression at the mRNA as well as the protein levels | significantly reduced cellular proliferation | mitigated the augmented CFP fluorescence |  |  |  |  |
| si.CircPVT1: siRNA targeting the junction sequence of CircPVT1, 5’-UGGGCUUGAGGCCUGAUCUUU-3’ (other strand not given here) |  |  |  |  |  | significant reduction of MYC protein | reduced cellular proliferation | significant reduction of MYC protein | reduced cellular proliferation |

— paper doi:10.1101/2025.02.17.638454, “Synergistic RAS-MAPK and AKT Activation in MYC-Driven Tumors via Adjacent PVT1 Rearrangements” (bioRxiv, 2025)
